# Source: PubChem BioAssay AID1918953 (Molecular Pharmacology Branch, DTP, NCI, 2023)
# Where “and” joins values, the source holds several entries; their conditions need not be identical. Identical values can stand only once.
# Tested on: MDA-MB-231 complex spheroid viability
# Experiment: Anticancer human tumor MDA-MB-231/ATCC cell line growth inhibition;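 further: drug exposure lasted 7 days starting on day 3 of spheroid growth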
# Conditions: for viability, T/C: stronger effect = lower value
# Summary of the method: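 Complex spheroids of tumor cells with HUVEC and human MSCs, exposed to iadademstat combined with other agents. Each agent tested in half-log steps from near clinical Cmax (else 10 microM top), DMSO ≤0.25%.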
# [1] = curve of first compound, second compound 0.1 µM
# [2] = curve of first compound, second compound 0.316 µM
# [3] = curve of first compound, second compound 1 µM
# [4] = curve of first compound, second compound 3.16 µM
# [5] = curve of first compound, second compound 10 µM
# [6] = second compound 0.1 µM, first compound 0.00949 µM
# [7] = second compound 0.1 µM, first compound 0.03 µM
# [8] = second compound 0.1 µM, first compound 0.0949 µM
# [9] = second compound 0.1 µM, first compound 0.3 µM
# [10] = second compound 0.316 µM, first compound 0.00949 µM
# [11] = second compound 0.316 µM, first compound 0.03 µM
# [12] = second compound 0.316 µM, first compound 0.0949 µM
# [13] = second compound 0.316 µM, first compound 0.3 µM
# [14] = second compound 1 µM, first compound 0.00949 µM
# [15] = second compound 1 µM, first compound 0.03 µM
# [16] = second compound 1 µM, first compound 0.0949 µM
# [17] = second compound 1 µM, first compound 0.3 µM
# [18] = second compound 3.16 µM, first compound 0.00949 µM
# [19] = second compound 3.16 µM, first compound 0.03 µM
# [20] = second compound 3.16 µM, first compound 0.0949 µM
# [21] = second compound 3.16 µM, first compound 0.3 µM
# [22] = second compound 10 µM, first compound 0.00949 µM
# [23] = second compound 10 µM, first compound 0.03 µM
# [24] = second compound 10 µM, first compound 0.0949 µM
# [25] = second compound 10 µM, first compound 0.3 µM
# [26] = second compound 0.1 µM, first compound 0.0316 µM
# [27] = second compound 0.1 µM, first compound 0.1 µM
# [28] = second compound 0.316 µM, first compound 0.0316 µM
# [29] = second compound 0.316 µM, first compound 0.1 µM
# [30] = second compound 1 µM, first compound 0.0316 µM
# [31] = second compound 1 µM, first compound 0.1 µM
# [32] = second compound 3.16 µM, first compound 0.0316 µM
# [33] = second compound 3.16 µM, first compound 0.1 µM
# [34] = second compound 10 µM, first compound 0.0316 µM
# [35] = second compound 10 µM, first compound 0.1 µM
smiles,measurement,setting,value
CCN(c1cc(-c2ccc(CN3CCOCC3)cc2)cc(C(=O)NCc2c(C)cc(C)[nH]c2=O)c1C)C1CCOCC1 + NC1CC1c1ccc(-c2cccc(O)c2)cc1,IC50,[1],0.143 µM
same,IC50,[2],0.0997 µM
same,IC50,[3],0.0997 µM
same,IC50,[4],0.092 µM
same,IC50,[5],0.0131 µM
same,"viability, T/C",[6],89.6%
same,"viability, T/C",[7],82%
same,"viability, T/C",[8],51.3%
same,"viability, T/C",[9],40%
same,"viability, T/C","second compound 0.1 µM, first compound 0.949 µM",27.8%
same,"viability, T/C","second compound 0.1 µM, first compound 3 µM",17.8%
same,"viability, T/C",[10],73.1%
same,"viability, T/C",[11],70.2%
same,"viability, T/C",[12],46.2%
same,"viability, T/C",[13],36.4%
same,"viability, T/C","second compound 0.316 µM, first compound 0.949 µM",25.2%
same,"viability, T/C","second compound 0.316 µM, first compound 3 µM",16.6%
same,"viability, T/C",[14],68.2%
same,"viability, T/C",[15],69.7%
same,"viability, T/C",[16],46.7%
same,"viability, T/C",[17],35.1%
same,"viability, T/C","second compound 1 µM, first compound 0.949 µM",23.9%
same,"viability, T/C","second compound 1 µM, first compound 3 µM",17.1%
same,"viability, T/C",[18],72.5%
same,"viability, T/C",[19],71.6%
same,"viability, T/C",[20],44.7%
same,"viability, T/C",[21],34.3%
same,"viability, T/C","second compound 3.16 µM, first compound 0.949 µM",21.8%
same,"viability, T/C","second compound 3.16 µM, first compound 3 µM",16.6%
same,"viability, T/C",[22],52.6%
same,"viability, T/C",[23],43.1%
same,"viability, T/C",[24],34.3%
same,"viability, T/C",[25],24.6%
same,"viability, T/C","second compound 10 µM, first compound 0.949 µM",16.8%
same,"viability, T/C","second compound 10 µM, first compound 3 µM",12.2%
CC[C@@]1(O)C(=O)OCc2c1cc1n(c2=O)Cc2cc3c(CN(C)C)c(O)ccc3nc2-1 + NC1CCC(NC2CC2c2ccccc2)CC1,IC50,[1],0.00237 µM
same,IC50,[2],0.00218 µM
same,IC50,[3],0.00228 µM
same,IC50,[4],0.00146 µM
same,IC50,[5],0.000603 µM
same,"viability, T/C","second compound 0.1 µM, first compound 0.000316 µM",91.6%
same,"viability, T/C","second compound 0.1 µM, first compound 0.001 µM",70.6%
same,"viability, T/C","second compound 0.1 µM, first compound 0.00316 µM",40.3%
same,"viability, T/C","second compound 0.1 µM, first compound 0.01 µM",29.1%
same,"viability, T/C",[26],22.5%
same,"viability, T/C",[27],13%
same,"viability, T/C","second compound 0.316 µM, first compound 0.000316 µM",87.6%
same,"viability, T/C","second compound 0.316 µM, first compound 0.001 µM",66.3%
same,"viability, T/C","second compound 0.316 µM, first compound 0.00316 µM",40%
same,"viability, T/C","second compound 0.316 µM, first compound 0.01 µM",28.9%
same,"viability, T/C",[28],22.2%
same,"viability, T/C",[29],12.4%
same,"viability, T/C","second compound 1 µM, first compound 0.000316 µM",87.3%
same,"viability, T/C","second compound 1 µM, first compound 0.001 µM",69.6%
same,"viability, T/C","second compound 1 µM, first compound 0.00316 µM",38.9%
same,"viability, T/C","second compound 1 µM, first compound 0.01 µM",29.7%
same,"viability, T/C",[30],22.4%
same,"viability, T/C",[31],13.2%
same,"viability, T/C","second compound 3.16 µM, first compound 0.000316 µM",74.4%
same,"viability, T/C","second compound 3.16 µM, first compound 0.001 µM",56.8%
same,"viability, T/C","second compound 3.16 µM, first compound 0.00316 µM",36.5%
same,"viability, T/C","second compound 3.16 µM, first compound 0.01 µM",28.9%
same,"viability, T/C",[32],19.9%
same,"viability, T/C",[33],13.2%
same,"viability, T/C","second compound 10 µM, first compound 0.000316 µM",57.8%
same,"viability, T/C","second compound 10 µM, first compound 0.001 µM",44.2%
same,"viability, T/C","second compound 10 µM, first compound 0.00316 µM",31.3%
same,"viability, T/C","second compound 10 µM, first compound 0.01 µM",23.2%
same,"viability, T/C",[34],16%
same,"viability, T/C",[35],12.2%
O=C(C=Cn1cnc(-c2cc(C(F)(F)F)cc(C(F)(F)F)c2)n1)NNc1cnccn1,"viability, T/C",compound 0.00316 µM,61.8% and 35.1%
same,"viability, T/C",compound 0.01 µM,32.6% and 31.3%
same,"viability, T/C",compound 0.0316 µM,11.5% and 11.8%
same,"viability, T/C",compound 0.1 µM,9.25% and 3.52%
same,"viability, T/C",compound 0.316 µM,10.8% and 3.53%
same,"viability, T/C",compound 1 µM,5.27% and 4.37%
same,IC50,curve of compound,0.00504 µM and < 0.00316 µM
Nc1ccn(C2OC(CO)C(O)C2(F)F)c(=O)n1 (stereo unspecified) + NC1CC1c1ccc(-c2cccc(O)c2)cc1,IC50,[1],< 0.000949 µM
same,IC50,[2],< 0.000949 µM
same,IC50,[3],< 0.000949 µM
same,IC50,[4],< 0.000949 µM
same,IC50,[5],< 0.000949 µM
same,"viability, T/C","second compound 0.1 µM, first compound 0.000949 µM",30.5%
same,"viability, T/C","second compound 0.1 µM, first compound 0.003 µM",24.4%
same,"viability, T/C",[6],22.2%
same,"viability, T/C",[7],19.4%
same,"viability, T/C",[8],17.4%
same,"viability, T/C",[9],12%
same,"viability, T/C","second compound 0.316 µM, first compound 0.000949 µM",28%
same,"viability, T/C","second compound 0.316 µM, first compound 0.003 µM",23.6%
same,"viability, T/C",[10],21.3%
same,"viability, T/C",[11],14.5%
same,"viability, T/C",[12],14.1%
same,"viability, T/C",[13],12.9%
same,"viability, T/C","second compound 1 µM, first compound 0.000949 µM",30.8%
same,"viability, T/C","second compound 1 µM, first compound 0.003 µM",21.8%
same,"viability, T/C",[14],22.4%
same,"viability, T/C",[15],15.6%
same,"viability, T/C",[16],15.3%
same,"viability, T/C",[17],12.3%
same,"viability, T/C","second compound 3.16 µM, first compound 0.000949 µM",33.8%
same,"viability, T/C","second compound 3.16 µM, first compound 0.003 µM",23.9%
same,"viability, T/C",[18],19.9%
same,"viability, T/C",[19],17.5%
same,"viability, T/C",[20],15.8%
same,"viability, T/C",[21],11.3%
same,"viability, T/C","second compound 10 µM, first compound 0.000949 µM",22.9%
same,"viability, T/C","second compound 10 µM, first compound 0.003 µM",18.1%
same,"viability, T/C",[22],16%
same,"viability, T/C",[23],13.6%
same,"viability, T/C",[24],10.9%
same,"viability, T/C",[25],9.95%
CC1COCCN1c1cc(C2(S(C)(=N)=O)CC2)nc(-c2ccnc3[nH]ccc23)n1 (stereo unspecified) + NC1CCC(NC2CC2c2ccccc2)CC1,IC50,[1],1.18 µM
same,IC50,[2],1.46 µM
same,IC50,[3],1.53 µM
same,IC50,[4],1.18 µM
same,IC50,[5],1.01 µM
same,"viability, T/C",[26],103%
same,"viability, T/C",[27],99.2%
same,"viability, T/C","second compound 0.1 µM, first compound 0.316 µM",82.5%
same,"viability, T/C","second compound 0.1 µM, first compound 1 µM",51.1%
same,"viability, T/C","second compound 0.1 µM, first compound 3.16 µM",38.1%
same,"viability, T/C","second compound 0.1 µM, first compound 10 µM",29.4%
same,"viability, T/C",[28],111%
same,"viability, T/C",[29],109%
same,"viability, T/C","second compound 0.316 µM, first compound 0.316 µM",81.6%
same,"viability, T/C","second compound 0.316 µM, first compound 1 µM",59.2%
same,"viability, T/C","second compound 0.316 µM, first compound 3.16 µM",34.9%
same,"viability, T/C","second compound 0.316 µM, first compound 10 µM",29.3%
same,"viability, T/C",[30],109%
same,"viability, T/C",[31],100%
same,"viability, T/C","second compound 1 µM, first compound 0.316 µM",79.5%
same,"viability, T/C","second compound 1 µM, first compound 1 µM",56%
same,"viability, T/C","second compound 1 µM, first compound 3.16 µM",40%
same,"viability, T/C","second compound 1 µM, first compound 10 µM",30.3%
same,"viability, T/C",[32],95%
same,"viability, T/C",[33],87%
same,"viability, T/C","second compound 3.16 µM, first compound 0.316 µM",69.7%
same,"viability, T/C","second compound 3.16 µM, first compound 1 µM",53%
same,"viability, T/C","second compound 3.16 µM, first compound 3.16 µM",37.9%
same,"viability, T/C","second compound 3.16 µM, first compound 10 µM",33.3%
same,"viability, T/C",[34],72.4%
same,"viability, T/C",[35],68.2%
same,"viability, T/C","second compound 10 µM, first compound 0.316 µM",59.5%
same,"viability, T/C","second compound 10 µM, first compound 1 µM",48.1%
same,"viability, T/C","second compound 10 µM, first compound 3.16 µM",42.4%
same,"viability, T/C","second compound 10 µM, first compound 10 µM",32.3%
NC1CC1c1ccc(-c2cccc(O)c2)cc1 (stereo unspecified),"viability, T/C",compound 0.316 µM,68.1% [middle of 25 runs]
same,"viability, T/C",compound 1 µM,62.9% [middle of 25 runs]
same,"viability, T/C",compound 3.16 µM,64.5% [middle of 25 runs]
same,"viability, T/C",compound 10 µM,47.7% [middle of 25 runs]
